Laboratory results published in patent US5578573A, “Viral integrase inhibiting peptides” (priority 1995, dated 1996).
Residues, ends and D or L forms follow the SMILES beside them.

target: T1, HIV integrase (Human immunodeficiency virus type 1 group M subtype B, UniProt P04585); experiment: biochemical; assay type: biochemical; conditions: not given
T1 construct: The HIV integrase used in these assays was expressed in E. coli; made in house; host or cells: E. coli
Protocol: HIV integrase activity was assayed by site-specific cleavage and integration of a 28 base pair synthetic oligonucleotide substrate representing HIV-1 U5 essentially as described by Vink et al., Nucl. Acids Res. 21:1419-1425 (1993), which is incorporated herein by reference. The HIV integrase used in these assays was expressed in E. coli and purified to near homogeneity.
Briefly, 0.2 pmol 5'-^32 P-oligonucleotide substrate and 2 μM HIV integrase were incubated at 37° C. for 1 hr in 10 μl assay buffer (10 mM MOPS, pH 7.2, 50 mM NaCl, 3 mM MnCl2, 0.05 mM EDTA, 0.1 mM β-mercaptoethanol, 4% glycerol). Control integrase activity was determined in the absence of any peptide. The activity of a peptide to be tested was examined by adding the peptide to the appropriate concentration in a 2 μl volume. Reactions were stopped by addition of 10 μl formamide loading dye (95% formamide, 20 mM EDTA, 0.05% bromophenol blue, 0.05% xylene cyanol) and incubation at 80° C. for 3 min. A 5 μl aliquot of the sample was separated by electrophoresis on a 12% denaturing polyacrylamide gel. Migration was detected by autoradiography and integrase activity was quantified by densitometry. Inhibition of integrase activity by a peptide corresponded with the disappearance of the cleavage and integration products.

| Structure (SMILES) | IC50 [µM] |
| --- | --- |
| C[C@H](NC(=O)[C@@H](N)Cc1c[nH]cn1)C(=O)N[C@@H](CCCCN)C(=O)N[C@@H](Cc1ccccc1)C(=O)N[C@@H](Cc1c[nH]c2ccccc12)C(=O)N[C@@H](Cc1c[nH]c2ccccc12)C(N)=O [compound 23] (H-HAKFWW-NH2) | 30 |
| C[C@H](NC(=O)[C@H](Cc1c[nH]c2ccccc12)NC(=O)[C@H](Cc1ccccc1)NC(=O)[C@H](CCCCN)NC(=O)[C@H](CS)NC(=O)[C@@H](N)Cc1c[nH]cn1)C(N)=O [compound 27] (H-HCKFWA-NH2) | 210 |
| C[C@H](N)C(=O)N[C@@H](CS)C(=O)N[C@@H](CCCCN)C(=O)N[C@@H](Cc1ccccc1)C(=O)N[C@@H](Cc1c[nH]c2ccccc12)C(=O)N[C@@H](Cc1c[nH]c2ccccc12)C(N)=O [compound 22] (H-ACKFWW-NH2) | 51 |
| C[C@H](NC(=O)[C@H](CCCCN)NC(=O)[C@H](CS)NC(=O)[C@@H](N)Cc1c[nH]cn1)C(=O)N[C@@H](Cc1c[nH]c2ccccc12)C(=O)N[C@@H](Cc1c[nH]c2ccccc12)C(N)=O [compound 25] (H-HCKAWW-NH2) | 8 |
| NCCCC[C@H](NC(=O)[C@H](CS)NC(=O)[C@@H](N)Cc1c[nH]cn1)C(=O)N[C@@H](Cc1ccccc1)C(=O)N[C@@H](Cc1c[nH]c2ccccc12)C(=O)N[C@@H](Cc1ccccc1)C(N)=O [compound 15] (H-HCKFWF-NH2) | 5 |
| NCCCC[C@H](NC(=O)[C@H](CS)NC(=O)[C@@H](N)Cc1cnc[nH]1)C(=O)N[C@@H](Cc1ccccc1)C(=O)N[C@@H](Cc1c[nH]c2ccccc12)C(=O)N[C@@H](Cc1c[nH]c2ccccc12)C(N)=O [compound 19] (H-HCKFWW-NH2) | 2 |
| C[C@H](NC(=O)[C@H](Cc1ccccc1)NC(=O)[C@H](CCCCN)NC(=O)[C@H](CS)NC(=O)[C@@H](N)Cc1c[nH]cn1)C(=O)N[C@@H](Cc1c[nH]c2ccccc12)C(N)=O [compound 26] (H-HCKFAW-NH2) | 150 |
| C[C@H](NC(=O)[C@H](CS)NC(=O)[C@@H](N)Cc1c[nH]cn1)C(=O)N[C@@H](Cc1ccccc1)C(=O)N[C@@H](Cc1c[nH]c2ccccc12)C(=O)N[C@@H](Cc1c[nH]c2ccccc12)C(N)=O [compound 24] (H-HCAFWW-NH2) | 49 |
| CC[C@H](C)[C@H](NC(=O)[C@H](Cc1c[nH]c2ccccc12)NC(=O)[C@H](Cc1ccccc1)NC(=O)[C@H](CCCCN)NC(=O)[C@H](CS)NC(=O)[C@@H](N)Cc1c[nH]cn1)C(N)=O [compound 11] (H-HCKFWI-NH2) | 4 |
| N=C(N)NCCC[C@H](NC(=O)[C@H](Cc1c[nH]c2ccccc12)NC(=O)[C@H](Cc1ccccc1)NC(=O)[C@H](CCCCN)NC(=O)[C@H](CS)NC(=O)[C@@H](N)Cc1c[nH]cn1)C(N)=O [compound 3] (H-HCKFWR-NH2) | 8 |

same assay, conditions: 50 μM peptide; results normalized to His-Cys-Lys-Phe-Trp-Trp-NH2 (SEQ ID NO: 19)

| Structure (SMILES) | % Inhibition of HIV integrase activity [%] |
| --- | --- |
| NCCCC[C@H](NC(=O)[C@H](CS)NC(=O)[C@@H](N)Cc1c[nH]cn1)C(=O)N[C@@H](Cc1ccccc1)C(=O)N[C@@H](Cc1c[nH]c2ccccc12)C(=O)N[C@@H](CCC(N)=O)C(N)=O [compound 8] (H-HCKFWQ-NH2) | 8 |
| C[C@H](NC(=O)[C@H](Cc1c[nH]c2ccccc12)NC(=O)[C@H](Cc1ccccc1)NC(=O)[C@H](CCCCN)NC(=O)[C@H](CS)NC(=O)[C@@H](N)Cc1c[nH]cn1)C(N)=O [compound 2] (H-HCKFWA-NH2) | 2 |
| NCCCC[C@H](NC(=O)[C@H](CS)NC(=O)[C@@H](N)Cc1c[nH]cn1)C(=O)N[C@@H](Cc1ccccc1)C(=O)N[C@@H](Cc1c[nH]c2ccccc12)C(=O)N[C@@H](CC(N)=O)C(N)=O [compound 4] (H-HCKFWN-NH2) | 30 |
| NCCCC[C@H](NC(=O)[C@H](CS)NC(=O)[C@@H](N)Cc1c[nH]cn1)C(=O)N[C@@H](Cc1ccccc1)C(=O)N[C@@H](Cc1c[nH]c2ccccc12)C(=O)N[C@@H](Cc1ccccc1)C(N)=O [compound 15] (H-HCKFWF-NH2) | 95 |
| C[C@@H](O)[C@H](NC(=O)[C@H](Cc1c[nH]c2ccccc12)NC(=O)[C@H](Cc1ccccc1)NC(=O)[C@H](CCCCN)NC(=O)[C@H](CS)NC(=O)[C@@H](N)Cc1c[nH]cn1)C(N)=O [compound 18] (H-HCKFWT-NH2) | 8 |
| NCCCC[C@H](NC(=O)[C@H](CS)NC(=O)[C@@H](N)Cc1c[nH]cn1)C(=O)N[C@@H](Cc1ccccc1)C(=O)N[C@@H](Cc1c[nH]c2ccccc12)C(=O)N[C@@H](CCC(=O)O)C(N)=O [compound 7] (H-HCKFWE-NH2) | 28 |
| NCCCC[C@H](NC(=O)[C@H](Cc1c[nH]c2ccccc12)NC(=O)[C@H](Cc1ccccc1)NC(=O)[C@H](CCCCN)NC(=O)[C@H](CS)NC(=O)[C@@H](N)Cc1c[nH]cn1)C(N)=O [compound 13] (H-HCKFWK-NH2) | 34 |
| CC(C)[C@H](NC(=O)[C@H](Cc1c[nH]c2ccccc12)NC(=O)[C@H](Cc1ccccc1)NC(=O)[C@H](CCCCN)NC(=O)[C@H](CS)NC(=O)[C@@H](N)Cc1c[nH]cn1)C(N)=O [compound 21] (H-HCKFWV-NH2) | 85 |
| NCCCC[C@H](NC(=O)[C@H](CS)NC(=O)[C@@H](N)Cc1c[nH]cn1)C(=O)N[C@@H](Cc1ccccc1)C(=O)N[C@@H](Cc1c[nH]c2ccccc12)C(=O)N[C@@H](Cc1ccc(O)cc1)C(N)=O [compound 20] (H-HCKFWY-NH2) | 75 |
| NCCCC[C@H](NC(=O)[C@H](CS)NC(=O)[C@@H](N)Cc1c[nH]cn1)C(=O)N[C@@H](Cc1ccccc1)C(=O)N[C@@H](Cc1c[nH]c2ccccc12)C(=O)N[C@@H](CO)C(N)=O [compound 17] (H-HCKFWS-NH2) | 40 |
| NCCCC[C@H](NC(=O)[C@H](CS)NC(=O)[C@@H](N)Cc1c[nH]cn1)C(=O)N[C@@H](Cc1ccccc1)C(=O)N[C@@H](Cc1c[nH]c2ccccc12)C(=O)N[C@@H](CS)C(N)=O [compound 6] (H-HCKFWC-NH2) | 30 |
| CC(C)C[C@H](NC(=O)[C@H](Cc1c[nH]c2ccccc12)NC(=O)[C@H](Cc1ccccc1)NC(=O)[C@H](CCCCN)NC(=O)[C@H](CS)NC(=O)[C@@H](N)Cc1c[nH]cn1)C(N)=O [compound 12] (H-HCKFWL-NH2) | 8 |
| CSCC[C@H](NC(=O)[C@H](Cc1c[nH]c2ccccc12)NC(=O)[C@H](Cc1ccccc1)NC(=O)[C@H](CCCCN)NC(=O)[C@H](CS)NC(=O)[C@@H](N)Cc1c[nH]cn1)C(N)=O [compound 14] (H-HCKFWM-NH2) | 42 |
| NCCCC[C@H](NC(=O)[C@H](CS)NC(=O)[C@@H](N)Cc1c[nH]cn1)C(=O)N[C@@H](Cc1ccccc1)C(=O)N[C@@H](Cc1c[nH]c2ccccc12)C(=O)N[C@@H](Cc1c[nH]cn1)C(N)=O [compound 10] (H-HCKFWH-NH2) | 72 |
| CC[C@H](C)[C@H](NC(=O)[C@H](Cc1c[nH]c2ccccc12)NC(=O)[C@H](Cc1ccccc1)NC(=O)[C@H](CCCCN)NC(=O)[C@H](CS)NC(=O)[C@@H](N)Cc1c[nH]cn1)C(N)=O [compound 11] (H-HCKFWI-NH2) | 96 |
| NCCCC[C@H](NC(=O)[C@H](CS)NC(=O)[C@@H](N)Cc1c[nH]cn1)C(=O)N[C@@H](Cc1ccccc1)C(=O)N[C@@H](Cc1c[nH]c2ccccc12)C(=O)NCC(N)=O [compound 9] (H-HCKFWG-NH2) | 82 |
| NCCCC[C@H](NC(=O)[C@H](CS)NC(=O)[C@@H](N)Cc1c[nH]cn1)C(=O)N[C@@H](Cc1ccccc1)C(=O)N[C@@H](Cc1c[nH]c2ccccc12)C(=O)N[C@@H](Cc1c[nH]c2ccccc12)C(N)=O [compound 19] (H-HCKFWW-NH2) | 100 |
| N=C(N)NCCC[C@H](NC(=O)[C@H](Cc1c[nH]c2ccccc12)NC(=O)[C@H](Cc1ccccc1)NC(=O)[C@H](CCCCN)NC(=O)[C@H](CS)NC(=O)[C@@H](N)Cc1c[nH]cn1)C(N)=O [compound 3] (H-HCKFWR-NH2) | 88 |
| NCCCC[C@H](NC(=O)[C@H](CS)NC(=O)[C@@H](N)Cc1c[nH]cn1)C(=O)N[C@@H](Cc1ccccc1)C(=O)N[C@@H](Cc1c[nH]c2ccccc12)C(=O)N[C@@H](CC(=O)O)C(N)=O [compound 5] (H-HCKFWD-NH2) | 18 |
| NCCCC[C@H](NC(=O)[C@H](CS)NC(=O)[C@@H](N)Cc1c[nH]cn1)C(=O)N[C@@H](Cc1ccccc1)C(=O)N[C@@H](Cc1c[nH]c2ccccc12)C(=O)N1CCC[C@H]1C(N)=O [compound 16] (H-HCKFWP-NH2) | 45 |
